Twelve compounds from ChEMBL document CHEMBL1147566, “Novel halogenated nitrobenzylthioinosine analogs as es nucleoside transporter inhibitors” (Bioorg Med Chem Lett, 2004) can be followed below.

The structures appear in SMILES notation.

Broadly, the Ki is a measure of affinity in units of concentration, obtained from inhibition or displacement. Higher therefore signals weaker binding.

The experiment has as its target T1, Equilibrative nucleoside transporter 1 (Homo sapiens, UniProt Q99808).
T1 sequence (Q99808 whole entry): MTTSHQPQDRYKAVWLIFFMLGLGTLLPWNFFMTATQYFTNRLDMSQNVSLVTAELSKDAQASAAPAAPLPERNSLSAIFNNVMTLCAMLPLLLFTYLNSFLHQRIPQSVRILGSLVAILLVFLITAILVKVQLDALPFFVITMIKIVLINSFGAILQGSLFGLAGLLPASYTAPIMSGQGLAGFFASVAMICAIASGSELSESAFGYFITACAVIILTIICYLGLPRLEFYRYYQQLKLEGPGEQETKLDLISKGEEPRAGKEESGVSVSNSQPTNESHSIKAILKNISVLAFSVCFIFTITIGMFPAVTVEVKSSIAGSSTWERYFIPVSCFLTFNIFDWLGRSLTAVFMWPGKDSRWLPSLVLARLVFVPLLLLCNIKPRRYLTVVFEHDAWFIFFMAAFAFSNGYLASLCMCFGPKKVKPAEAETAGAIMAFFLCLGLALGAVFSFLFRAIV
Nature of the experiment: Displacement of 5-(SAENTA)-X8-fluorescein from K562 cell nucleoside transporter. Type of experiment: cell-based.

`OC[C@H]1O[C@@H](n2cnc3c(SCc4ccccc4Cl)ncnc32)[C@H](O)[C@@H]1O` registered an inhibitory constant (Ki) of 99.5 nM.

In the case of `OC[C@H]1O[C@@H](n2cnc3c(SCc4ccc(F)cc4)ncnc32)[C@H](O)[C@@H]1O`, affinity was put at a Ki of 9.02 nM.

Take `OC[C@H]1O[C@@H](n2cnc3c(SCc4ccc(Br)cc4)ncnc32)[C@H](O)[C@@H]1O`: the affinity, expressed as Ki, was 9.98 nM.

In turn, `OC[C@H]1O[C@@H](n2cnc3c(SCc4cccc(Cl)c4)ncnc32)[C@H](O)[C@@H]1O` showed a Ki of 16 nM.

For `OC[C@H]1O[C@@H](n2cnc3c(SCc4cccc(I)c4)ncnc32)[C@H](O)[C@@H]1O`, the Ki turned out to be 13.8 nM.

Consider `OC[C@H]1O[C@@H](n2cnc3c(SCc4ccccc4Br)ncnc32)[C@H](O)[C@@H]1O`, for which affinity was put at a Ki of 134 nM.

As to `OC[C@H]1O[C@@H](n2cnc3c(SCc4cccc(Br)c4)ncnc32)[C@H](O)[C@@H]1O`, the affinity corresponds to a Ki of 20.5 nM.

Consider `OC[C@H]1O[C@@H](n2cnc3c(SCc4ccc(I)cc4)ncnc32)[C@H](O)[C@@H]1O`, for which the inhibitory constant (Ki) stood at 3.88 nM.

For `OC[C@H]1O[C@@H](n2cnc3c(SCc4ccccc4I)ncnc32)[C@H](O)[C@@H]1O`, the Ki worked out at 16.1 nM.

`OC[C@H]1O[C@@H](n2cnc3c(SCc4cccc(F)c4)ncnc32)[C@H](O)[C@@H]1O` returned an inhibition constant Ki of 11.2 nM.

`OC[C@H]1O[C@@H](n2cnc3c(SCc4ccccc4F)ncnc32)[C@H](O)[C@@H]1O`: the Ki stood at 19.9 nM.

Turning to `OC[C@H]1O[C@@H](n2cnc3c(SCc4ccc(Cl)cc4)ncnc32)[C@H](O)[C@@H]1O`, the Ki turned out to be 14.2 nM.
